The IC50 is the midpoint of a concentration-inhibition curve. What is called AUC is concentration integrated over time. Broadly, the Vd is the apparent volume that relates the amount in the body to the concentration in plasma or blood. The clearance is the volume of plasma or blood freed of the substance per unit of time. Low readings indicate inefficient removal, high ones efficient removal. The term half-life denotes the time needed for the level to fall by half in the phase considered. One may read the Cmax as the maximum level reached in the sampled fluid or tissue. Usually DC50 stands for the midpoint of the concentration-degradation curve. Lower therefore signals degradation at low concentration. As usually defined, the Dmax is the largest share of the target that was removed.

The structures appear in SMILES notation.

The test system of one data set is 22RV1 (H875Y/ARV7) cells. Put plainly: Assay on inhibitory activity for 22RV1 (H875Y/ARV7) cell proliferation (CellTiter-Glo). It counts as cell-based. As to conditions: Homo sapiens, 168 h. How it is done: After 10 min of incubation at room temperature, the mixture was transferred to a white plate at 100 µL/well. […] Table 6. Inhibitory activity of compounds for 22RV1 (H875Y/ARV7) cell proliferation
On the technique in general: ATP-based viability assays read luminescence as a measure of living cells.

The nature of the next data set: in vivo. The following applies: mouse.
Another data set has as its target T1, AR in VCaP cells (Homo sapiens, UniProt P10275).
T1 construct: Assay on degradation activity for AR in VCaP cells; endogenous in cells; host or cells: VCaP cells
T1 sequence (P10275 1-920): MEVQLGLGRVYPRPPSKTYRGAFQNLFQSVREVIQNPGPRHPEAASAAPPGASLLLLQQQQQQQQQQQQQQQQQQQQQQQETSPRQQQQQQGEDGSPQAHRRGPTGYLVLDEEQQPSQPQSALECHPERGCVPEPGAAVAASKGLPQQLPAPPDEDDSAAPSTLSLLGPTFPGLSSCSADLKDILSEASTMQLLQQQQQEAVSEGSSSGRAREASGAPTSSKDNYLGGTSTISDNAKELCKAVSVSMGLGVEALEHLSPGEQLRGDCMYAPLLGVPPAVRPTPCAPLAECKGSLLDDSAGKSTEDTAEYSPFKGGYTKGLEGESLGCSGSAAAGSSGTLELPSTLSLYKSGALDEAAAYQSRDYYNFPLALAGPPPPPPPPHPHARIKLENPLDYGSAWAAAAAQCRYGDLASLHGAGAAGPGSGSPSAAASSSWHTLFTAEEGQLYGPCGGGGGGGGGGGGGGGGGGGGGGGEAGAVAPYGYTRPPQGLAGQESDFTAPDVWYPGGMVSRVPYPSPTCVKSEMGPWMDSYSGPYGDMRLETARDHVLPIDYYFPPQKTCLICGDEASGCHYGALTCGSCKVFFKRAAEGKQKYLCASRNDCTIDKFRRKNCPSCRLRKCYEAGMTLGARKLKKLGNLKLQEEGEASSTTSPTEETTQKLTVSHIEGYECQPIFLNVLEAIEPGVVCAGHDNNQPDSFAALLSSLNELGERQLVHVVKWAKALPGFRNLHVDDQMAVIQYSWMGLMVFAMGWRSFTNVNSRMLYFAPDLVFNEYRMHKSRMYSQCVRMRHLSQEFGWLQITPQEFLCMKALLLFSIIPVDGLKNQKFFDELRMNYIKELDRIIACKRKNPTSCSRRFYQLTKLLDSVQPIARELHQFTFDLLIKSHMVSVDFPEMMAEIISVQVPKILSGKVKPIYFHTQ
Put plainly: Assay on degradation activity for AR in VCaP cells (HTRF human androgen receptor detection kit). It counts as cell-based. As to conditions: 24 h; for DC50: AR degradation; for Dmax: maximum degradation rate. How it is done: The detection was carried out using the HTRF HUMAN ANDROGEN RECEPTOR DETECTION KIT (cisbio, 64ANDRPEG), 4× Supplemented Lysis buffer was prepared using the Blocking reagent stock solution (100×) and Lysis buffer stock solution (4×), and 1× Supplemented Lysis buffer was prepared using the 4× Supplemented Lysis buffer and ddH2O. Premixed antibody solutions were prepared using Detection buffer, Androgen Receptor Eu Cryptate antibody, and Androgen Receptor d2 antibody.
The cells were cultured overnight in a cell incubator. […] After the cells were oscillated for 40 min at room temperature, 16 µL of the cell lysis buffer was added to a 384-well plate, the Premixed antibody solutions were added at 4 µL/well, and the mixture was left to stand at 25 °C for 2 h. […] Table 1. Degradation activity of compounds for AR in VCaP cells
Background: In TR-FRET formats the signal depends on donor and acceptor labels being close together.

The nature of data set [1]: In vitro liver microsome stability, mouse. As to conditions: mouse liver microsomes 0.5 mg/mL, 37 °C, NADPH. It counts as in vitro ADME. How it is done:
Liver microsome incubation samples were prepared by mixing a PBS buffer (pH 7.4), a liver microsome solution (0.5 mg/mL), a test compound, and an NADPH + MgCl2 solution, followed by incubation at 37 °C and 300 rpm for 1 h. Zero-hour samples were prepared by mixing a PBS buffer (pH 7.4), a liver microsome solution (0.5 mg/mL), and a test compound. […]
(Liver microsomes are vesicles of endoplasmic reticulum, rich in cytochrome P450 enzymes.)

A short description of a further data set: Mouse pharmacokinetics. As to conditions: Mouse i.g. (0-48 h), 10 mpk vs i.v. 1 mpk.
For another data set, the system named is VCaP cells. The data set is described as follows: Assay on inhibitory activity for VCaP cell proliferation (CCK-8). It counts as cell-based. The following applies: Homo sapiens, 168 h.

Experimental for Mouse pharmacokinetics: (§1) ICR mice weighing 18-22 g were randomized into groups of 9 after 3-5 days of acclimatization. The mice in the intragastric administration group were intragastrically given the test compound solution at a dose of 10 mg/kg (20 mg/kg or 30 mg/kg), and the mice in the intravenous injection administration group were intravenously injected with the test compound solution at a dose of 1 mg/kg.
(§2) Blood was collected from the orbit to prepare plasma samples to be tested.
(§3) 30 µL of each of the plasma samples to be tested and a standard curve sample were taken, and an acetonitrile solution containing an internal standard was added. Supernatants were obtained by protein precipitation, diluted with a 1:1 (v:v) mixed solution of acetonitrile and water, and then assayed by LC/MS/MS. Data were fitted using a non-compartmental model.
Experimental for in vivo: as §1, §2, §3

With `COc1cc(O[C@H]2C(C)(C)[C@H](NC(=O)c3ccc(N4CCC(CN5CCc6c(ccc7c(C8CCC(=O)NC8=O)noc67)C5)CC4)cc3)C2(C)C)ccc1C#N` (some centres unmarked) [Compound 1], the concentration for half-maximal inhibition (IC50) in the data set with 22RV1 (H875Y/ARV7) cells is less than 500 nM. In “in vivo” (iv, 1 mg/kg), this compound had an AUC at 48 h of 8380 ng·h/mL, a Vd of 2.13 L/kg, a clearance of 1.78 mL/min/kg and a half-life of 13.9 h. In the data set “in vivo” (po, 10 mg/kg), this compound had an area under the curve (AUC) at 48 h of 26800 ng·h/mL, a Cmax of 786 ng/mL and a half-life of 24.9 h. Moreover, at AR in VCaP cells, the DC50 was less than 5 nM and the Dmax was greater than 75%. The “MLM (mouse) Remaining amount at 60 min %” value in data set [1] is listed as greater than 70%. The F in the data set “Mouse pharmacokinetics” worked out at 31.99%. Also, the IC50 in the data set on VCaP cells was less than 2000 nM.

`COc1cc(O[C@H]2C(C)(C)[C@H](NC(=O)c3ccc(N4CCC(CN5CCc6c(ccc7c(C8CCC(=O)NC8=O)noc67)C5)CC4)nc3)C2(C)C)ccc1C#N` (some centres unmarked) [Compound 3]: the IC50 in the data set on 22RV1 (H875Y/ARV7) cells is less than 500 nM. At AR in VCaP cells, this compound yielded a DC50 of less than 5 nM and a Dmax greater than 75%. The “MLM (mouse) Remaining amount at 60 min %” value in data set [1] is on record as greater than 70%. Further, in the data set on VCaP cells, the IC50 was less than 2000 nM.

Compound `COc1cc(O[C@H]2C(C)(C)[C@H](NC(=O)c3cnc(N4CCC(CN5CCc6c(ccc7c(C8CCC(=O)NC8=O)noc67)C5)CC4)nc3)C2(C)C)ccc1C#N` (some centres unmarked) [Compound 4] showed a half-inhibitory concentration (IC50) in the data set on 22RV1 (H875Y/ARV7) cells of less than 500 nM. In the data set “in vivo” (iv, 1 mg/kg), this compound showed an area under the curve (AUC) at 48 h of 7730 ng·h/mL, a Vd of 2.14 L/kg, a clearance of 1.97 mL/min/kg and a half-life of 10.5 h. In the data set “in vivo” (po, 10 mg/kg), the AUC at 48 h turned out to be 39000 ng·h/mL, the Cmax was 1360 ng/mL and the half-life is 11.7 h. For the same compound, on AR in VCaP cells, the DC50 is less than 5 nM and the Dmax is greater than 75%. Also, the “MLM (mouse) Remaining amount at 60 min %” value in data set [1] is reported as greater than 70%. In the data set “Mouse pharmacokinetics”, this compound gave an F of 55.36%. Moreover, in the data set on VCaP cells, the IC50 was less than 2000 nM.

In the case of `COc1cc(O[C@H]2C(C)(C)[C@H](NC(=O)c3cnc(N4CCC(CN5CCc6c(ccc7c(C8CCC(=O)NC8=O)noc67)C5)CC4)cn3)C2(C)C)ccc1C#N` (some centres unmarked) [Compound 5], the IC50 in the data set with 22RV1 (H875Y/ARV7) cells is less than 500 nM. In the data set “in vivo” (iv, 1 mg/kg), the AUC at 48 h was 4340 ng·h/mL, the volume of distribution (Vd) was 3.79 L/kg, the clearance was 3.5 mL/min/kg and the half-life was 9.91 h. In the data set “in vivo” (po, 10 mg/kg), this compound gave an AUC at 48 h of 22100 ng·h/mL, a Cmax of 1010 ng/mL and a half-life of 9.72 h. On AR in VCaP cells, this compound registered a DC50 of less than 5 nM and a Dmax greater than 75%. The “MLM (mouse) Remaining amount at 60 min %” value in data set [1] is given as greater than 70%. In “Mouse pharmacokinetics”, the F was 50.78%. Further, the IC50 in the data set on VCaP cells was less than 2000 nM.

On AR in VCaP cells, `COc1cc(O[C@H]2C(C)(C)[C@H](NC(=O)c3ccc(N4CCC(CN5CCc6c(ccc7c(C8CCC(=O)NC8=O)noc67)C5)CC4)nn3)C2(C)C)ccc1C#N` (some centres unmarked) [Compound 6] had a DC50 of less than 5 nM and a Dmax greater than 75%. For the same compound, in data set [1], the “MLM (mouse) Remaining amount at 60 min %” value was greater than 70%.

These data come from patent EP4768489A1, “CYCLOBUTYL-CONTAINING COMPOUNDS” (Chia Tai Tianqing Pharmaceutical Group Co., Ltd., priority 2023, dated 2025).
